Measurements as given in patent US9302999B2, “Substituted triazoles as herbicides” (E. I. DU PONT DE NEMOURS AND COMPANY, priority 2012, dated 2016).

Tests used:
Type in all cases: in vivo
[1] = tested on: foxtail, giant (giant foxtail, Setaria faberii); assay: Test F pre-/postemergence: foxtail, giant; settings: Preemergence
Excerpt: (§1) Seeds of plant species selected from corn (Zea mays), soybean (Glycine max), velvetleaf (Abutilon theophrasti), lambsquarters (Chenopodium album), poinsettia, wild (wild poinsettia, Euphorbia heterophylla), pigweed, palmer (palmer pigweed, Amaranthus palmeri), waterhemp (common waterhemp, Amaranthus rudis), surinam grass (Brachiaria decumbens), crabgrass, Brazil (Brazilian crabgrass, Digitaria horizontalis), panicum, fall (fall panicum Panicum dichotomiflorum), crabgrass, large (large crabgrass, Digitaria sanguinalis), foxtail, giant (giant foxtail, Setaria faberii), foxtail, green (green foxtail Setaria viridis), goosegrass (Eleusine indica), ragweed (common ragweed, Ambrosia elatior), barnyardgrass (Echinochloa crus-galli), sandbur (southern sandbur, Cenchrus echinatus), arrowleaf sida (Sida rhombifolia), ryegrass, Italian (Italian ryegrass, Lolium multiflorum), dayflower, VA (Virginia (VA) dayflower, Commelina virginica), field bindweed (Convolvulus arvensis), cocklebur (common cocklebur, Xanthium strumarium), morningglory (Ipomoea coccinea), nightshade (eastern black nightshade, Solanum ptycanthum), kochia (Kochia scoparia), nutsedge, yellow (yellow nutsedge, Cyperus esculentus), johnsongrass (Sorghum halepense), smartweed (ladysthumb smartweed, Polygonum persicaria), and beggarticks (hairy beggarticks, Bidens pilosa), were planted into a silt loam soil and treated preemergence with test chemicals formulated in a non-phytotoxic solvent mixture which included a surfactant. At the same time, plants selected from these crop and weed species and also pigweed (Amaranthus retroflexus), waterhemp_RES1 (ALS/Triazine resistant common waterhemp, Amaranthus rudis) and waterhemp_RES2 (ALS/HPPD resistant common waterhemp, Amaranthus rudis) were planted in pots containing a planting medium comprising spaghnum peat moss, vermiculite, wetting agent and starter nutrients treated with postemergence applications of some of the test chemicals formulated in the same manner. Plants ranged in height from 2 to 18 cm for postemergence treatments (1- to 4-leaf stage).
(§2) Treated plants and controls were maintained in a greenhouse for 14 to 21 days, after which time all species were compared to controls and visually evaluated. Plant response ratings, summarized in Table E, are based on a scale of 0 to 100 where 0 is no effect and 100 is complete control. A dash (-) response means no test result.

[2] = tested on: waterhemp (common waterhemp, Amaranthus rudis); assay: Test F pre-/postemergence: waterhemp; settings: Preemergence
Excerpt: as §1, §2

[3] = tested on: deadnettle (henbit deadnettle, Lamium amplexicaule); assay: Test D pre-/postemergence: deadnettle
Summary of the method: (§3)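 Visual ratings from 0 (no effect) to 100 (complete control) were made 14–21 days after treatment, relative to controls. Applications were preemergence to seeds in silt loam, or postemergence to 2–18 cm (1–4 leaf) plants in peat-based medium. Compounds were formulated in a surfactant-containing non-phytotoxic solvent.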

[4] = tested on: blackgrass (Alopecurus myosuroides); assay: Test D pre-/postemergence: blackgrass
Summary of the method: as §3

[5] = tested on: johnsongrass (Sorghum halepense); assay: Test F pre-/postemergence: johnsongrass; settings: Preemergence
Summary of the method: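 Seeds were sown in silt loam soil and sprayed preemergence with test chemical in a non-phytotoxic solvent mixture containing surfactant; postemergence treatments went onto plants 2 to 18 cm tall (1- to 4-leaf stage) grown in peat moss/vermiculite medium. After 14 to 21 days in a greenhouse, injury was rated visually against controls, 0 (no effect) to 100 (complete control).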

[6] = tested on: radish, wild (wild radish, Raphanus raphanistrum); assay: Test D pre-/postemergence: radish, wild
Summary of the method: as §3

[7] = tested on: barley, winter (winter barley, Hordeum vulgare); assay: Test D pre-/postemergence: barley, winter
Summary of the method: as §3

[8] = tested on: lambsquarters (Chenopodium album); assay: Test F pre-/postemergence: lambsquarters; settings: Preemergence
Excerpt: as §1, §2

[9] = tested on: canarygrass (Phalaris minor); assay: Test D pre-/postemergence: canarygrass
Summary of the method: as §3

[10] = 16 g ai/ha, scale 0 to 100, 0 no effect, 100 complete control
[11] = 31 g ai/ha, scale 0 to 100, 0 no effect, 100 complete control
[12] = Postemergence, 31 g ai/ha, scale 0 to 100 (0 no effect, 100 complete control)
[13] = Postemergence, 62 g ai/ha, scale 0 to 100 (0 no effect, 100 complete control)
[14] = Postemergence, 125 g ai/ha, scale 0 to 100, 0 no effect, 100 complete control
[15] = Postemergence, 16 g ai/ha, scale 0 to 100
[16] = Preemergence, 16 g ai/ha, scale 0 to 100, 0 no effect, 100 complete control
[17] = Preemergence, 31 g ai/ha, scale 0 to 100, 0 no effect, 100 complete control
[18] = Preemergence, 62 g ai/ha, scale 0 to 100
[19] = Preemergence, 125 g ai/ha, scale 0 to 100

## Cc1nn(-c2ccc(C(F)(F)F)c(F)c2)nc1Oc1ccnc(C(F)(F)F)c1 [Compound 148]
[1]; [10]
  Plant response rating, Foxtail, Giant: 25
[1]; [11]
  Plant response rating, Foxtail, Giant: 95
[1]; 62 g ai/ha, scale 0 to 100
  Plant response rating, Foxtail, Giant: 100
[1]; 125 g ai/ha, scale 0 to 100
  Plant response rating, Foxtail, Giant: 100
[1]; 250 g ai/ha, scale 0 to 100
  Plant response rating, Foxtail, Giant: 100
[2]; [10]
  Plant response rating, Waterhemp: 30
[2]; [11]
  Plant response rating, Waterhemp: 90
[2]; 125 g ai/ha, scale 0 to 100
  Plant response rating, Waterhemp: 100
[2]; 250 g ai/ha, scale 0 to 100
  Plant response rating, Waterhemp: 100
[3]; [12]
  Plant response rating: Deadnettle: 65
[3]; [13]
  Plant response rating: Deadnettle: 100
[3]; [14]
  Plant response rating: Deadnettle: 100
[3]; [15]
  Plant response rating, Deadnettle: 70
[3]; [16]
  Plant response rating, Deadnettle: 10
[3]; [17]
  Plant response rating, Deadnettle: 45
[3]; [18]
  Plant response rating, Deadnettle: 100
[3]; [19]
  Plant response rating, Deadnettle: 100
[4]; [12]
  Plant response rating: Blackgrass: 15
[4]; [13]
  Plant response rating: Blackgrass: 30
[4]; [14]
  Plant response rating: Blackgrass: 65
[4]; [15]
  Plant response rating, Blackgrass: 10
[4]; [16]
  Plant response rating, Blackgrass: 0
[4]; [17]
  Plant response rating, Blackgrass: 10
[4]; [18]
  Plant response rating, Blackgrass: 5
[4]; [19]
  Plant response rating, Blackgrass: 5
[5]; [10]
  Plant response rating, Johnsongrass: 0
[5]; [11]
  Plant response rating, Johnsongrass: 20
[5]; 62 g ai/ha, scale 0 to 100
  Plant response rating, Johnsongrass: 20
[5]; 125 g ai/ha, scale 0 to 100
  Plant response rating, Johnsongrass: 30
[5]; 250 g ai/ha, scale 0 to 100
  Plant response rating, Johnsongrass: 40
[6]; [12]
  Plant response rating: Radish, Wild: 100
[6]; [13]
  Plant response rating: Radish, Wild: 100
[6]; [14]
  Plant response rating: Radish, Wild: 100
[6]; [15]
  Plant response rating, Radish, Wild: 90
[6]; [16]
  Plant response rating, Radish, Wild: 10
[6]; [17]
  Plant response rating, Radish, Wild: 20
[6]; [18]
  Plant response rating, Radish, Wild: 100
[6]; [19]
  Plant response rating, Radish, Wild: 100
[7]; [12]
  Plant response rating: Barley, Winter: 20
[7]; [13]
  Plant response rating: Barley, Winter: 25
[7]; [14]
  Plant response rating: Barley, Winter: 30
[7]; [15]
  Plant response rating, Barley, Winter: 10
[7]; [16]
  Plant response rating, Barley, Winter: 0
[7]; [17]
  Plant response rating, Barley, Winter: 0
[7]; [18]
  Plant response rating, Barley, Winter: 5
[7]; [19]
  Plant response rating, Barley, Winter: 5
[8]; [10]
  Plant response rating, Lambsquarters: 0
[8]; [11]
  Plant response rating, Lambsquarters: 50
[8]; 62 g ai/ha, scale 0 to 100
  Plant response rating, Lambsquarters: 98
[8]; 125 g ai/ha, scale 0 to 100
  Plant response rating, Lambsquarters: 100
[8]; 250 g ai/ha, scale 0 to 100
  Plant response rating, Lambsquarters: 100
[9]; [12]
  Plant response rating: Canarygrass: 30
[9]; [13]
  Plant response rating: Canarygrass: 20
[9]; [14]
  Plant response rating: Canarygrass: 70
[9]; [15]
  Plant response rating, Canarygrass: 10
[9]; [16]
  Plant response rating, Canarygrass: 0
[9]; [17]
  Plant response rating, Canarygrass: 50
[9]; [18]
  Plant response rating, Canarygrass: 60
[9]; [19]
  Plant response rating, Canarygrass: 100

## CCc1nn(-c2ccc(F)cc2)nc1Cc1ccnc(C(F)(F)F)c1 [Compound 154]
[1]; [10]
  Plant response rating, Foxtail, Giant: 5
[1]; [11]
  Plant response rating, Foxtail, Giant: 65
[1]; 62 g ai/ha, scale 0 to 100
  Plant response rating, Foxtail, Giant: 100
[1]; 125 g ai/ha, scale 0 to 100
  Plant response rating, Foxtail, Giant: 100
[1]; 250 g ai/ha, scale 0 to 100
  Plant response rating, Foxtail, Giant: 100
[2]; [10]
  Plant response rating, Waterhemp: 50
[2]; [11]
  Plant response rating, Waterhemp: 60
[2]; 125 g ai/ha, scale 0 to 100
  Plant response rating, Waterhemp: 100
[2]; 250 g ai/ha, scale 0 to 100
  Plant response rating, Waterhemp: 100
[5]; [10]
  Plant response rating, Johnsongrass: 0
[5]; [11]
  Plant response rating, Johnsongrass: 20
[5]; 62 g ai/ha, scale 0 to 100
  Plant response rating, Johnsongrass: 25
[5]; 125 g ai/ha, scale 0 to 100
  Plant response rating, Johnsongrass: 50
[5]; 250 g ai/ha, scale 0 to 100
  Plant response rating, Johnsongrass: 98
[8]; [10]
  Plant response rating, Lambsquarters: 0
[8]; [11]
  Plant response rating, Lambsquarters: 30
[8]; 62 g ai/ha, scale 0 to 100
  Plant response rating, Lambsquarters: 75
[8]; 125 g ai/ha, scale 0 to 100
  Plant response rating, Lambsquarters: 98
[8]; 250 g ai/ha, scale 0 to 100
  Plant response rating, Lambsquarters: 98

## CCc1nn(-c2ccc(C(F)(F)F)cc2)nc1Cc1ccnc(C(F)(F)F)c1 [Compound 155]
[1]; 62 g ai/ha, scale 0 to 100
  Plant response rating, Foxtail, Giant: 98
[1]; 125 g ai/ha, scale 0 to 100
  Plant response rating, Foxtail, Giant: 100
[1]; 250 g ai/ha, scale 0 to 100
  Plant response rating, Foxtail, Giant: 100
[2]; 125 g ai/ha, scale 0 to 100
  Plant response rating, Waterhemp: 100
[2]; 250 g ai/ha, scale 0 to 100
  Plant response rating, Waterhemp: 100
[3]; [12]
  Plant response rating: Deadnettle: 75
[3]; [13]
  Plant response rating: Deadnettle: 90
[3]; [14]
  Plant response rating: Deadnettle: 100
[3]; [15]
  Plant response rating, Deadnettle: 75
[3]; [16]
  Plant response rating, Deadnettle: 5
[3]; [17]
  Plant response rating, Deadnettle: 5
[3]; [18]
  Plant response rating, Deadnettle: 80
[3]; [19]
  Plant response rating, Deadnettle: 95
[4]; [12]
  Plant response rating: Blackgrass: 50
[4]; [13]
  Plant response rating: Blackgrass: 60
[4]; [14]
  Plant response rating: Blackgrass: 85
[4]; [15]
  Plant response rating, Blackgrass: 5
[4]; [16]
  Plant response rating, Blackgrass: 5
[4]; [17]
  Plant response rating, Blackgrass: 10
[4]; [18]
  Plant response rating, Blackgrass: 20
[4]; [19]
  Plant response rating, Blackgrass: 70
[5]; 62 g ai/ha, scale 0 to 100
  Plant response rating, Johnsongrass: 90
[5]; 125 g ai/ha, scale 0 to 100
  Plant response rating, Johnsongrass: 90
[5]; 250 g ai/ha, scale 0 to 100
  Plant response rating, Johnsongrass: 100
[6]; [12]
  Plant response rating: Radish, Wild: 95
[6]; [13]
  Plant response rating: Radish, Wild: 95
[6]; [14]
  Plant response rating: Radish, Wild: 100
[6]; [15]
  Plant response rating, Radish, Wild: 85
[6]; [16]
  Plant response rating, Radish, Wild: 100
[6]; [17]
  Plant response rating, Radish, Wild: 95
[6]; [18]
  Plant response rating, Radish, Wild: 100
[6]; [19]
  Plant response rating, Radish, Wild: 100
[7]; [12]
  Plant response rating: Barley, Winter: 20
[7]; [13]
  Plant response rating: Barley, Winter: 25
[7]; [14]
  Plant response rating: Barley, Winter: 35
[7]; [15]
  Plant response rating, Barley, Winter: 15
[7]; [16]
  Plant response rating, Barley, Winter: 5
[7]; [17]
  Plant response rating, Barley, Winter: 0
[7]; [18]
  Plant response rating, Barley, Winter: 5
[7]; [19]
  Plant response rating, Barley, Winter: 10
[8]; 62 g ai/ha, scale 0 to 100
  Plant response rating, Lambsquarters: 98
[8]; 125 g ai/ha, scale 0 to 100
  Plant response rating, Lambsquarters: 98
[8]; 250 g ai/ha, scale 0 to 100
  Plant response rating, Lambsquarters: 98
[9]; [12]
  Plant response rating: Canarygrass: 70
[9]; [13]
  Plant response rating: Canarygrass: 70
[9]; [14]
  Plant response rating: Canarygrass: 85
[9]; [15]
  Plant response rating, Canarygrass: 20
[9]; [16]
  Plant response rating, Canarygrass: 10
[9]; [17]
  Plant response rating, Canarygrass: 70
[9]; [18]
  Plant response rating, Canarygrass: 100
[9]; [19]
  Plant response rating, Canarygrass: 100
